Data as given in ChEMBL document CHEMBL2434948, “Discovery, synthesis, and characterization of an orally bioavailable, brain penetrant inhibitor of mixed lineage kinase 3” (J Med Chem, 2013).
Activity calls are given as the source filed them. No cut-off for these calls is given here.

What was measured:
[1] = molecular target: Platelet-derived growth factor receptor beta (Homo sapiens) (UniProt P09619); assay: Inhibition of human wild type PDGFRB at 1 uM by qPCR analysis relative to control
[2] = test system: Leucine-rich repeat serine/threonine-protein kinase 2 (Homo sapiens), Q5S007 [G2019S]; assay: Inhibition of human LRRK2 G2019S mutant at 1 uM by qPCR analysis relative to control
[3] = molecular target: RAC-beta serine/threonine-protein kinase (Homo sapiens) (UniProt P31751); assay: Inhibition of human wild type AKT2 at 1 uM by qPCR analysis
[4] = molecular target: Dual specificity tyrosine-phosphorylation-regulated kinase 1B (Homo sapiens) (UniProt Q9Y463); assay: Inhibition of human wild type DYRK1B at 1 uM by qPCR analysis relative to control
[5] = molecular target: ALK tyrosine kinase receptor (Homo sapiens) (UniProt Q9UM73); assay: Inhibition of human wild type ALK at 1 uM by qPCR analysis relative to control
[6] = molecular target: Hepatocyte growth factor receptor (Homo sapiens, UniProt P08581)
Description: Inhibition of wild type human c-MET by high throughput ATP-[33P] radiolabeled assay

[7] = molecular target: Tyrosine-protein kinase ZAP-70 (Homo sapiens, UniProt P43403)
Description: Inhibition of wild type human ZAP70 by high throughput ATP-[33P] radiolabeled assay

[8] = molecular target: BDNF/NT-3 growth factors receptor (Homo sapiens, UniProt Q16620)
Description: Inhibition of wild type human TRKB by high throughput ATP-[33P] radiolabeled assay

[9] = molecular target: Mitogen-activated protein kinase 14 (Homo sapiens, UniProt Q16539); assay: Inhibition of human wild type p38alpha at 1 uM by qPCR analysis
[10] = molecular target: NUAK family SNF1-like kinase 1 (Homo sapiens) (UniProt O60285); assay: Inhibition of human wild type ARK5 at 1 uM by qPCR analysis relative to control
[11] = molecular target: Tyrosine-protein kinase Lck (Homo sapiens, UniProt P06239)
Description: Inhibition of wild type human LCK by high throughput ATP-[33P] radiolabeled assay

[12] = molecular target: T1, Receptor-type tyrosine-protein kinase FLT3 (Homo sapiens, UniProt P36888); assay: cell-based
T1 sequence (P36888 whole entry): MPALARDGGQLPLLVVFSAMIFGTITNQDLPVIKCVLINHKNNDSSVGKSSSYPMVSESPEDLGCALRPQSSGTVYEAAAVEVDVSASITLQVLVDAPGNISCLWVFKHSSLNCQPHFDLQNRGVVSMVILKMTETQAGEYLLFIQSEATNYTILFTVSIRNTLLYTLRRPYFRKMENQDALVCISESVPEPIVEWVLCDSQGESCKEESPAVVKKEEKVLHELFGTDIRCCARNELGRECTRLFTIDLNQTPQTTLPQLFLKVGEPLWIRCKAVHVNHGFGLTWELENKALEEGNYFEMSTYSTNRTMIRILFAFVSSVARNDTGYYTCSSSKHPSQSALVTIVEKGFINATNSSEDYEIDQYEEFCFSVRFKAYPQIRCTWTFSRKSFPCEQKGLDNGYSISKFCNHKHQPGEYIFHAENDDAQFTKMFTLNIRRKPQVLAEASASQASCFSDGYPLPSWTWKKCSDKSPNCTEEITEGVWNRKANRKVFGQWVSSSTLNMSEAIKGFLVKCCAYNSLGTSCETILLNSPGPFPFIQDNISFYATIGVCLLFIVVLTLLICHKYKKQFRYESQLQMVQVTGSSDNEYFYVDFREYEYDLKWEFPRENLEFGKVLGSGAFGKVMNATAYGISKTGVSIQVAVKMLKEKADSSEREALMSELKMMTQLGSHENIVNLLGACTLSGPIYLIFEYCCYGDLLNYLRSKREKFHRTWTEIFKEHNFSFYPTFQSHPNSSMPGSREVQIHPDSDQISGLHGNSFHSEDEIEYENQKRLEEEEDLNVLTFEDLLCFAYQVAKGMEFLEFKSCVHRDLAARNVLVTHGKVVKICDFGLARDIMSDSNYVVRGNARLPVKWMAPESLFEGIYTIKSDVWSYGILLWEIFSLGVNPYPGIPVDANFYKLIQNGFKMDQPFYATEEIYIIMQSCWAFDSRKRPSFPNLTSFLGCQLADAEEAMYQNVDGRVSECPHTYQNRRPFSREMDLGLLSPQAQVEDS
Description: Inhibition of FLT3-L-stimulated wild type full length human FLT3 autophosphorylation expressed in MEF preincubated for 90 mins followed by FLT3-L stimulation measured after 5 mins by ELISA

[13] = molecular target: Non-receptor tyrosine-protein kinase TYK2 (Homo sapiens) (UniProt P29597); assay: Inhibition of human wild type TYK2 at 1 uM by qPCR analysis relative to control
[14] = molecular target: High affinity nerve growth factor receptor (Homo sapiens, UniProt P04629)
Description: Inhibition of wild type human TRKA by high throughput ATP-[33P] radiolabeled assay

[15] = molecular target: Insulin-like growth factor 1 receptor (Homo sapiens, UniProt P08069)
Description: Inhibition of wild type human IGF1R by high throughput ATP-[33P] radiolabeled assay

[16] = molecular target: Epidermal growth factor receptor (Homo sapiens) (UniProt P00533); assay: Inhibition of human wild type EGFR at 1 uM by qPCR analysis
[17] = molecular target: Cyclin-dependent kinase 1 (Homo sapiens, UniProt P06493)
Description: Inhibition of wild type human CDK1 by high throughput ATP-[33P] radiolabeled assay

[18] = molecular target: T1, Receptor-type tyrosine-protein kinase FLT3
Description: Inhibition of wild type human FLT3 by high throughput ATP-[33P] radiolabeled assay

[19] = molecular target: Rho-associated protein kinase 2 (Homo sapiens, UniProt O75116)
Description: Inhibition of wild type human ROCK2 by high throughput ATP-[33P] radiolabeled assay

[20] = molecular target: T2, Mitogen-activated protein kinase 8 (Homo sapiens, UniProt P45983)
Description: Inhibition of wild type human wild type JNK1 by qPCR analysis

Aurora kinase B = Aurora kinase B (Homo sapiens, UniProt Q96GD4)
Description: Inhibition of wild type human Aurora kinase B by high throughput ATP-[33P] radiolabeled assay

[21] = molecular target: Protein delta homolog 1 (Homo sapiens) (UniProt P80370); assay: Inhibition of human wild type DLK at 1 uM by qPCR analysis relative to control
[22] = molecular target: Mitogen-activated protein kinase kinase kinase kinase 4 (Homo sapiens) (UniProt O95819); assay: Binding affinity to human wild type MAP4K4 at 1 uM by qPCR analysis
in vivo = details: C57BL/6, mouse, po, 10 mg/kg
[23] = molecular target: Mitogen-activated protein kinase kinase kinase 10 (Homo sapiens, UniProt Q02779)
Description: Inhibition of MLK2 (unknown origin)

[24] = molecular target: T2, Mitogen-activated protein kinase 8; remark: listed apart in the source
Description: Inhibition of wild type human JNK1 by high throughput [33P]-ATP radiolabeled assay

[25] = molecular target: Rho-associated protein kinase 1 (Homo sapiens, UniProt Q13464)
Description: Inhibition of wild type human ROCK1 by high throughput ATP-[33P] radiolabeled assay

[26] = molecular target: Mitogen-activated protein kinase kinase kinase 2 (Homo sapiens, UniProt Q9Y2U5)
Description: Inhibition of wild type human MEKK2 by high throughput ATP-[33P] radiolabeled assay

[27] = molecular target: Mitogen-activated protein kinase kinase kinase 11 (Mus musculus, UniProt Q80XI6)
[28] = molecular target: Tyrosine-protein kinase SYK (Homo sapiens, UniProt P43405)
Description: Inhibition of wild type human SYK by high throughput ATP-[33P] radiolabeled assay

T2 sequence (P45983 whole entry): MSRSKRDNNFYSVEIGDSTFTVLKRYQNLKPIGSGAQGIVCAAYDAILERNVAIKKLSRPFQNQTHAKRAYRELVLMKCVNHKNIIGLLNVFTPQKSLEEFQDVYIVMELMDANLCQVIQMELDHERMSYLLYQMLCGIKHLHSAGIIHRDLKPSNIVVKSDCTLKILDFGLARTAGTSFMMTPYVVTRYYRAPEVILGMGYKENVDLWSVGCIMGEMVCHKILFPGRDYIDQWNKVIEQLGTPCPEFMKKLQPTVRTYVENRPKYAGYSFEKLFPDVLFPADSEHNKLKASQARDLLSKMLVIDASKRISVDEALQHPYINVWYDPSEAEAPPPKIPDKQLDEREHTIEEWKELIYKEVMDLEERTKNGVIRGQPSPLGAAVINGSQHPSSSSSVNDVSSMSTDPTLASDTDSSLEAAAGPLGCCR
Insulin-like growth factor 1 receptor, sequence (P08069 31-736 limits assumed): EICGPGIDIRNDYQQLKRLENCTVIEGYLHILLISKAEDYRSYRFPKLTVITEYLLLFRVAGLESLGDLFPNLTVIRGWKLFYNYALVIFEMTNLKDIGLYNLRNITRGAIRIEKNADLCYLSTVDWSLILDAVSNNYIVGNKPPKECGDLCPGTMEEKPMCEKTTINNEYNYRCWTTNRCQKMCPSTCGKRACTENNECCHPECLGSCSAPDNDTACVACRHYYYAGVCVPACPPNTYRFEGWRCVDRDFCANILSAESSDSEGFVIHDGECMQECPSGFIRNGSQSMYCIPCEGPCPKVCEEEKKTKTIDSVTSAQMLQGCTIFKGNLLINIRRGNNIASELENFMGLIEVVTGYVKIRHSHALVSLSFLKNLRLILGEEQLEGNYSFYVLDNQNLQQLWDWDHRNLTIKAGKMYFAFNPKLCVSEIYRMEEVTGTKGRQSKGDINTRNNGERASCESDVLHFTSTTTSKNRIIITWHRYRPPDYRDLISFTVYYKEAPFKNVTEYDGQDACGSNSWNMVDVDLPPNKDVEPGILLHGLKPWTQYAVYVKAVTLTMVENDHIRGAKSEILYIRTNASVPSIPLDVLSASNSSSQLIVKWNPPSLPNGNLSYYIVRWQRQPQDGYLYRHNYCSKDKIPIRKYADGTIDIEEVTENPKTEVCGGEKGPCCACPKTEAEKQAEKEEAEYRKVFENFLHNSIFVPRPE
Insulin-like growth factor 1 receptor, sequence (P08069 741-1367 limits assumed): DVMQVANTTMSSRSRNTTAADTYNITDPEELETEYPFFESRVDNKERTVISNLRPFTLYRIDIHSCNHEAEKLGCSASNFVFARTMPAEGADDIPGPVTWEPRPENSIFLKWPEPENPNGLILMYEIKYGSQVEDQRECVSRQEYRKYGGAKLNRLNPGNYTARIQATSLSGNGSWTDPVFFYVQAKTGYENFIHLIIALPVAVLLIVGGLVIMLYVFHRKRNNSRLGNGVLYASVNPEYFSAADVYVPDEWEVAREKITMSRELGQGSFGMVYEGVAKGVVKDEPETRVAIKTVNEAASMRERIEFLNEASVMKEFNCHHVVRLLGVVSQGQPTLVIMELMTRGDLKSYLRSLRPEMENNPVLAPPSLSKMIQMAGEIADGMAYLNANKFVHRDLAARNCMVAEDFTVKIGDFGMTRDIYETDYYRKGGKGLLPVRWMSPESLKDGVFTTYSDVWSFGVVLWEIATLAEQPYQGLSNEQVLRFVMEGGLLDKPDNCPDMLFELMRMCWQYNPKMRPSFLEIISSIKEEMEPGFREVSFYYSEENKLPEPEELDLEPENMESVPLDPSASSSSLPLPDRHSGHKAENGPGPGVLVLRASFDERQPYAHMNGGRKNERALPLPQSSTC
Cyclin-dependent kinase 1, sequence (P06493 whole entry): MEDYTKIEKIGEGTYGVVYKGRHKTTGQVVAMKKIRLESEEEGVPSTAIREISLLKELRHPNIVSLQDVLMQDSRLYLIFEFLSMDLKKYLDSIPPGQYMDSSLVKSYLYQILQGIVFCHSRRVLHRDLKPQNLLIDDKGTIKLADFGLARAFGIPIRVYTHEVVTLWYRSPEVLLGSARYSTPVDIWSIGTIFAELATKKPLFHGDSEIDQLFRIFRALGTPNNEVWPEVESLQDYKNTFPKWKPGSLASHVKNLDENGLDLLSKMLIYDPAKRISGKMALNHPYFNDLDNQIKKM
Mitogen-activated protein kinase kinase kinase kinase 4 (Homo sapiens), sequence (O95819 2-1239 limits assumed): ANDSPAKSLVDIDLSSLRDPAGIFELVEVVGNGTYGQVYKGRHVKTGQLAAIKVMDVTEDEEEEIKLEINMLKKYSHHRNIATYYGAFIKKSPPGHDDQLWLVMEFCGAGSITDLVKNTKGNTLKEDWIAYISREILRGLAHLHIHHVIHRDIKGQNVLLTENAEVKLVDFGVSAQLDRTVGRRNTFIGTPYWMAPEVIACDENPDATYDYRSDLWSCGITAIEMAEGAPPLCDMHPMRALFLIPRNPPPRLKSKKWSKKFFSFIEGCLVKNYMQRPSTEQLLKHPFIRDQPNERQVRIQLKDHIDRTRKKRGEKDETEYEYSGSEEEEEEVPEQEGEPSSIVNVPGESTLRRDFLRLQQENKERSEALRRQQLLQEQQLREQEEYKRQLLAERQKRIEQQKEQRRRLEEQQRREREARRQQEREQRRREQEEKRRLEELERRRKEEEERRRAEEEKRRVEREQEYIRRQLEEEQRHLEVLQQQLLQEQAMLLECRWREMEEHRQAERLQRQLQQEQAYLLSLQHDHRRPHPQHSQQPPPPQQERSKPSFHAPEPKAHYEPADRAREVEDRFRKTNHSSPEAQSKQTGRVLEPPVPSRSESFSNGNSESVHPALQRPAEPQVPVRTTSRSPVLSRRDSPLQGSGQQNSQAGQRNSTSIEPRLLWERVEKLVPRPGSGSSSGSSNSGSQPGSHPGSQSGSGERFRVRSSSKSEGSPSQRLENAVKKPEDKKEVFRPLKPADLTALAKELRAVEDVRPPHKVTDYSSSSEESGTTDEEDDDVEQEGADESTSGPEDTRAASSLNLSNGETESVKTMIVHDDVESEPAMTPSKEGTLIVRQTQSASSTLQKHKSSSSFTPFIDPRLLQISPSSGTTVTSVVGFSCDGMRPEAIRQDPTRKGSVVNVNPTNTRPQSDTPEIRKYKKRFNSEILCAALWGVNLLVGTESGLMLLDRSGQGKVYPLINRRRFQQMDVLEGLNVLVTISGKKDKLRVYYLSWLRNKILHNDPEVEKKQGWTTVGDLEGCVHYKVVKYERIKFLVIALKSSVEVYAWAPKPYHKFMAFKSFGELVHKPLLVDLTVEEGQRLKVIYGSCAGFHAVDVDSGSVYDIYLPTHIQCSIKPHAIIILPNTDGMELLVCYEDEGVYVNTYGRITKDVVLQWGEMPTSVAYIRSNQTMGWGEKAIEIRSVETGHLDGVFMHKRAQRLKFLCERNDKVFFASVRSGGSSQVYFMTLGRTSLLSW
Mitogen-activated protein kinase kinase kinase 10, sequence (Q02779 whole entry): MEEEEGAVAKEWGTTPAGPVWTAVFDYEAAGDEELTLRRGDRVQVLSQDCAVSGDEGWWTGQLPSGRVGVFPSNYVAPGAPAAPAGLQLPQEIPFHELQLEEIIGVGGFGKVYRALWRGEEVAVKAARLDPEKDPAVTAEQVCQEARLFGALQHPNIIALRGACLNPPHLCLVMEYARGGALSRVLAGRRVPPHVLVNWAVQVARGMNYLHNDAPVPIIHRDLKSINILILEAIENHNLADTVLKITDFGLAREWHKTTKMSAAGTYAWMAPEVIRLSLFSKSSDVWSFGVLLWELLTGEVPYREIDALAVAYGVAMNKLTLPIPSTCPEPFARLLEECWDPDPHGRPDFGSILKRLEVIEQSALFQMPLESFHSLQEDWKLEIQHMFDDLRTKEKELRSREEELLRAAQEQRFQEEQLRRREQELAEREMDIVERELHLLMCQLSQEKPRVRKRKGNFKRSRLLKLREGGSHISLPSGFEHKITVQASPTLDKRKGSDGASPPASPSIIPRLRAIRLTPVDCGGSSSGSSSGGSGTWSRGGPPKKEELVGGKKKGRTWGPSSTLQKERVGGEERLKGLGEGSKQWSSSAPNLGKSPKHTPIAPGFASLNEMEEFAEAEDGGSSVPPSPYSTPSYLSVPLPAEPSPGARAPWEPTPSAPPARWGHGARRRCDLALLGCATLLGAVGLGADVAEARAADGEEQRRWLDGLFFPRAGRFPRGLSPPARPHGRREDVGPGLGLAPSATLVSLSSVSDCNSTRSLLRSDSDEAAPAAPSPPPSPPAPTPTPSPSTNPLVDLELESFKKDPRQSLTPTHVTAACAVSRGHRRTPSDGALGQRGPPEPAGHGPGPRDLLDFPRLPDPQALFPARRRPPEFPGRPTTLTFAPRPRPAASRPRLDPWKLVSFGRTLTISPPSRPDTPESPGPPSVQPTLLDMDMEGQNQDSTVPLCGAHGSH
Tyrosine-protein kinase ZAP-70, sequence (P43403 whole entry): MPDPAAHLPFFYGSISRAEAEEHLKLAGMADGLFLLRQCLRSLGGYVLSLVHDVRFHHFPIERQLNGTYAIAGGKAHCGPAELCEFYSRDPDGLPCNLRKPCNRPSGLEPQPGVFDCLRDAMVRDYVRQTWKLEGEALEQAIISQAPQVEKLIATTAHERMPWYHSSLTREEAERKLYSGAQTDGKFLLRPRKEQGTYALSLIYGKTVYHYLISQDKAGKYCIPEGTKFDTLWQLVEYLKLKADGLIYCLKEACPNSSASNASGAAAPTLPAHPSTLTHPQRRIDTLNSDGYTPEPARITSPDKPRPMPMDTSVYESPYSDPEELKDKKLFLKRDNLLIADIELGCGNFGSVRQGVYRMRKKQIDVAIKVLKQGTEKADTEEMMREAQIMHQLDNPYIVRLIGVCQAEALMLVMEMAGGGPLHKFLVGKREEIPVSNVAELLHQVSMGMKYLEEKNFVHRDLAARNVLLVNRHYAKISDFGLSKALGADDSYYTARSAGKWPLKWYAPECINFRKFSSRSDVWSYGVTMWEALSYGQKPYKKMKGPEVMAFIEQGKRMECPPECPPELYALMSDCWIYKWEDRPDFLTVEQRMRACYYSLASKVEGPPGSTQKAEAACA

CN1CCN(Cc2ccc(-c3cnc4[nH]cc(-c5ccc6[nH]ccc6c5)c4c3)cc2)CC1
inhibition [1]: > 90% | inhibition [2]: 96% | inhibition [3]: inactive | inhibition [4]: > 90% | inhibition [5]: > 90% | IC50 [6]: 0.177 µM | IC50 [7]: 5.05 µM | IC50 [8]: 0.217 µM | inhibition [9]: inactive | inhibition [10]: > 90% | IC50 [11]: 0.333 µM | IC50 [12]: 0.56 µM | inhibition [13]: > 90% | IC50 [14]: 0.085 µM | IC50 [15]: 0.307 µM | inhibition [16]: inactive | IC50 [17]: 1.13 µM | IC50 [18]: 0.004 µM | IC50 [19]: 0.111 µM | IC50 [20]: 3.28 µM | IC50 (Aurora kinase B): 0.123 µM | inhibition [21]: 88% | inhibition [22]: Active | Tmax (in vivo): 4 h | IC50 [23]: 0.042 µM | IC50 [24]: 3.2 µM | IC50 [25]: 1.03 µM | IC50 [26]: 0.661 µM | IC50 [27]: 0.46 µM | IC50 [28]: 0.731 µM
